This passage reports AC35 results from PubChem BioAssay AID624404 (Broad Institute, 2012).

Inconclusive results are not listed. Some results are limits rather than exact numbers.

The test system of the experiment is D54 LucT luciferase reporter counterscreen, luminescence, 24 h. In words: luciferase activators in glycosylation-insensitive reporter cells, dose response, counter-screen for N-linked glycosylation inhibitor project, D54 LucT cells, luminescence, cherry pick (AID 624404). A general note: The purpose of a counterscreen is to sort out artefacts and off-target activity.

Take `COc1ccc(Nc2oc(-c3ccc(Cl)cc3)nc2C#N)cc1`: the AC35 is 202 nM.
For `Cc1ccc(C(=O)N/C(=C\c2cccs2)C(=O)NCCc2c[nH]c3ccccc23)cc1` the value was 1090 nM; for `COc1cc(-c2[nH]ncc2CN2CCSCC2)cc(OC)c1OC`, 3500 nM.
For `CC(=O)Nc1ccc(Nc2ccc3c4c(cc(=O)n3C)-c3ccccc3C(=O)c24)cc1` the value was 345 nM; for `CCOc1ccc2[nH]c(C(=O)N/N=C/c3cc(OC)c(OC)c(OC)c3)cc2c1`, 3270 nM.
For `Cc1ccc(N2CC(C(=O)Nc3ccc(S(=O)(=O)N4CCOCC4)cc3)CC2=O)cc1Cl` (stereo not drawn) the value was 2530 nM; for `Cn1c(=O)c2cc(NC(=O)CCc3ccccc3)ccc2n1-c1ccccc1F`, 2980 nM; for `NC(=O)CC(NC(=O)Cc1ccc(Br)cc1)c1ccc(NC2CCN(Cc3ccccc3)CC2)c([N+](=O)[O-])c1` (stereo not drawn), 983 nM.
Consider `Cc1cc(C)c2c(N)c3cccc(C)c3nc2n1`, for which the AC35 is 5820 nM.
Consider `O=C(CCl)Nc1cc(S(=O)(=O)N2CCCCCC2)ccc1Cl`, for which the AC35 is 1160 nM.
Regarding `COc1cc(/C=N/NC(=O)c2ccc(-c3ccccc3)cc2)cc(OC)c1OC`, the AC35 is 4600 nM.
For `COc1ccc2[nH]c(C(=O)N3CCN(Cc4ccccc4)CC3)cc2c1OC` the value was 2980 nM; for `CC(CC(=O)Nc1ccc2c(c1)c(=O)n(C)n2-c1cccs1)c1ccccc1` (stereo not drawn), 7420 nM.
Consider `NC(=O)CC(NC(=O)Cc1ccc(Br)cc1)c1ccc(NC2CCCC2)c([N+](=O)[O-])c1` (stereo not drawn), for which the AC35 was 2870 nM.
For `COc1cccc(CNC(=O)COC(=O)c2ccc(-c3ccc(O)cc3)cc2)c1` the value was 3650 nM; for `COc1ccc(Cl)cc1NC(=O)Nc1ccc(C(=O)N2CCCC2)cc1`, 2950 nM; for `Oc1ccc(Nc2nc(N3CCCC3)c3ccccc3n2)cc1`, 150 nM.
With `O=C(Nc1ccc(S(=O)(=O)N2CCOCC2)cc1)c1cc(-c2cc(Cl)ccc2O)n[nH]1`, the AC35 was 1370 nM.
Regarding `CCc1ccc(OCC(=O)Nc2ccncc2)c(Br)c1`, the AC35 is 598 nM.
For `CC1CN(C(=O)c2ccc(COc3ccc(C(C)C)cc3)o2)CC(C)O1` (stereo not drawn) the value was < 1.2 nM; for `CCOC(=O)N1CCC(NC(=O)c2ccc3c(c2)N=C(C)c2c(C)ccc(C)c2S3)CC1`, 940 nM; for `COc1ccc(-c2cc(C(F)F)n3ncc(C(=O)n4ccnc4C)c3n2)cc1`, 2770 nM.
For `O=C(O)c1ccc(N/N=C/c2ccc(-c3ccc(Cl)cc3Cl)o2)cc1` the value was 1470 nM; for `Brc1ccc(C2=Nn3c(nnc3-c3n[nH]c4c3CCC4)SC2)cc1`, 394 nM.
Take `COc1ccc(Nc2cc(C)nc(-n3nc(C)cc3C)n2)cc1`: the AC35 is 150 nM.
Turning to `Cn1c(=O)n(C)c2cc(S(=O)(=O)N3CCCc4ccccc43)ccc21`, the AC35 was 10200 nM.
As for `Cc1ccc(-c2nc3ncccc3o2)cc1NC(=O)c1ccc([N+](=O)[O-])o1`, the AC35 is 505 nM.
For `COc1cccc(C(=O)Nc2ccc3c(c2)C(=O)c2ccccc2C3=O)c1` the value was 121 nM; for `CC(=O)c1c(C)[nH]c(C(=O)Nc2nccs2)c1C`, 379 nM; for `CC(Nc1nc(-c2cccnc2)nc2ccccc12)c1ccc(F)cc1` (stereo not drawn), 3450 nM.
For `Cc1cccc(N2CCN(C(=O)c3ccc(Cl)c(S(=O)(=O)NCc4ccco4)c3)CC2)c1C` the value was 202 nM.
For `COc1ccc(Nc2nc(-c3sc(C)nc3C)cs2)c(OC)c1` the value was 75 nM; for `O=c1cc(N2CCN(c3ccccc3Cl)CC2)[nH]c(=O)n1Cc1ccc(F)cc1`, 3260 nM; for `O=S(=O)([N-]c1nc2ccccc2nc1-n1cc[n+](Cc2ccccc2)c1)c1ccc(Br)cc1`, 57 nM.
On to `CC(=O)Nc1ccc(/C=C/C(=O)c2ccc3c(c2)OCCO3)cc1`, for which the AC35 is 2880 nM.
For `CCOC(=O)c1cnc2c(ccc3ccccc32)c1NCCCN(C)C` the value was 515 nM; for `COc1ccc2c(c1)[C@H]1[C@H](CO2)[C@H](c2ccccc2)[C@]2(C)C(=O)Nc3ccccc3C(=O)N12`, 353 nM; for `O=C(Nc1cccc(-c2cn3ccccc3n2)c1)c1cccc(Cl)c1`, 2150 nM.
Turning to `CC#CC#Cc1cccc(=O)o1`, the AC35 was 407 nM.
For `C[C@H](CO)N1C[C@H](C)[C@@H](CN(C)S(=O)(=O)c2ccccc2)Oc2c(NC(=O)Cc3ccccc3)cccc2C1=O` the value was 2240 nM; for `CCOc1ccc(/C=C/C(=O)c2ccccc2)cc1OC`, 1260 nM.
`COc1ccc(C2(CNC(=O)c3cc(OC)c(OC)c(OC)c3)CCCC2)cc1OC`: the AC35 was 3410 nM.
For `CCc1ccc(N2C(=O)NC(=O)/C(=C\C=C\c3ccco3)C2=O)cc1` the value was 1740 nM.
For `C[C@]1(O)CC(=O)C=C[C@H]1Nc1ccccc1` the value was 1970 nM.
For `CCOC(=O)c1c(C)nc2c(c1-c1cc(OC)c(OC)c(OC)c1)C(=O)c1ccccc1-2` the value was 514 nM; for `O=C(Nc1ccncc1)C1CCCN(S(=O)(=O)c2cccc3cccnc23)C1` (stereo not drawn), 4670 nM; for `CC(C)c1c(C(=O)Nc2ccccc2)c(-c2ccccc2)c(-c2ccc(F)cc2)n1CC[C@@H](O)C[C@@H](O)CC(=O)O`, 1260 nM.
For the compound `Cc1cc(NCCN2CCOCC2)c2ccc3ccccc3c2n1`, the AC35 was 17.8 nM.
In the case of `CC(=O)Nc1sc(C)c(C)c1C(=O)OCC(=O)Nc1ccccc1`, the AC35 was 1920 nM.
On to `CCOc1ccc(Nc2nc(N(C)c3ccccc3)nc(N)c2[N+](=O)[O-])cc1`, for which the AC35 was 128 nM.
For `COC(=O)c1cn(C(=O)c2cccc3ccccc23)c2ccccc12` the value was 284 nM; for `Cc1cnc(C(=O)Nc2ccc(OC(F)(F)F)cc2)cn1`, 3180 nM.
For `CC(C)c1ccc(/C=N/NC(=O)c2ccccc2Cl)cc1` the value was 247 nM.
For `NNC(=O)c1ccc(OCC2CC(c3ccc(Cl)cc3)=NO2)cc1` (stereo not drawn) the value was 157 nM; for `COc1ccc(Nc2nc(N(C)c3ccccc3)nc(N)c2[N+](=O)[O-])cc1`, 171 nM.
Take `Cn1cccc1/C=C1\SC(=Nc2ccccc2)NC1=O`: the AC35 is 473 nM.
Turning to `Cn1c(=O)cc2c3c(c(N4CCCCC4)ccc31)C(=O)c1ccccc1-2`, the AC35 is 1350 nM.
For `CC(Nc1nc(-c2cccnc2)nc2ccccc12)c1ccccc1` (stereo not drawn) the value was 1050 nM; for `O=C(c1ccc(Cl)c(S(=O)(=O)N2CCCCC2)c1)N1CCN(Cc2ccccc2)CC1`, 1920 nM.
For `CCC(c1nc2ccccc2c(=O)n1-c1nc2ccccc2s1)N1C(=O)c2ccccc2C1=O` (stereo not drawn) the value was 740 nM.
For `O=C(Nc1cccc2ncccc12)c1ccc([N+](=O)[O-])o1` the value was 4570 nM; for `COc1cccc(-c2nn(C)c3sc(C(=O)NCc4ccco4)cc23)c1`, 3350 nM.
For `COc1cc(Nc2nc3c(N)cc(C(F)(F)F)cc3nc2-c2ccccc2)cc(OC)c1OC`, the AC35 was 3870 nM.
As for `Nc1c(N(Cc2ccccc2)C(=O)COc2ccc([N+](=O)[O-])cc2)c(=O)[nH]c(=O)n1Cc1ccccc1`, the AC35 was 303 nM.
For `O=C(CSc1nnc(-c2cc3ccccc3cc2O)n1Cc1ccco1)N1CCc2ccccc2C1` the value was 1280 nM.
As to `CCCCCC(O)C=CC1C(O)CC(O)C1CC=CCCCC(=O)O` (stereo not drawn), the AC35 is 3.82 nM.
As for `COc1ccc(C(=O)Nc2sc(C)c(C)c2CN2CC(C)OC(C)C2)cc1` (stereo not drawn), the AC35 is 352 nM.
Turning to `Cc1nnc2c(NC3CCCCC3)nc3ccccc3n12`, the AC35 was 3510 nM.
